Reference: PMC9788324, “In Vitro and In Silico Pharmacological and Cosmeceutical Potential of Ten Essential Oils from Aromatic Medicinal Plants from the Mascarene Islands” (Molecules, 2022)

How the values were obtained:
[1] = biological target: T1, collagenase from Clostridium histolyticum (Type IV); assay: fluorescence assay, DQ gelatin-fluorescein ([…] nm); type: biochemical, Hathewaya histolytica; details: DQ gelatin substrate, 0.2 U/mL enzyme, 15 min preincubation at 37 °C; positive control, printed as '1,1 Phenanthroline' in table
T1 construct: gene colG; native commercial collagenase from EnzChek Gelatinase/Collagenase Assay Kit; ColG/ColH not distinguished; docking used PDB 2Y6I, not the assay protein

[2] = biological target: T2, porcine pancreatic elastase (Sus scrofa, UniProt P00772); assay: chromogenic assay, absorbance at […] nm; type: biochemical; details: read-out: Elastase Inhibition / IC50 (μg/mL) (converted)
T2 construct: gene CELA1; commercial native pancreatic enzyme (Sigma-Aldrich); mature form; docking used PDB 1BRU (recalled as porcine elastase 2), not the assay protein
T2 sequence (P00772 27-266): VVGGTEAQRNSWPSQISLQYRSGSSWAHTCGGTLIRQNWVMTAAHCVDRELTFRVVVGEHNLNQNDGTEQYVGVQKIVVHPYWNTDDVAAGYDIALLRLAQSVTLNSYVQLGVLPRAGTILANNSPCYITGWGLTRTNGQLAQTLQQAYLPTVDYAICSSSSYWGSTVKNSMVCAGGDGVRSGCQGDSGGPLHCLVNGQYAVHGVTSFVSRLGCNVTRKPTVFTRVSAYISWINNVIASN

SMILES | Collagenase Inhibition / IC50 (mg/mL) [1] | IC50 [2]
c1cnc2c(c1)ccc1cccnc12 [1,10-phenanthroline] | 4.20 × 10^−3 ± 0.00 mg/mL | 
C[C@H]1[C@H](C)CC[C@]2(C(=O)O)CC[C@]3(C)C(=CC[C@@H]4[C@@]5(C)CC[C@H](O)C(C)(C)[C@@H]5CC[C@]43C)[C@H]12 [Ursolic acid] |  | 22.1 µM
